Data reported in PubChem BioAssay (NCI).
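1) Cells in 96-well plates. 2) Compound, 48 h, 5 concentrations. 3) Linear interpolation between surrounding doses. 4) Unreached endpoint = highest concentration. At the GI50, growth is halved. At the TGI there is no net growth.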

Columns and labels:
Experiment in all cases: NCI-60 cell line screen, 48 h
HT29 colon = tested on: HT29 colon
SK-MEL-28 melanoma = tested on: SK-MEL-28 melanoma
A549 NSCLC = tested on: A549 NSCLC
HCT-15 colon = tested on: HCT-15 colon
A498 renal = tested on: A498 renal
SK-OV-3 ovarian = tested on: SK-OV-3 ovarian
SF-268 CNS = tested on: SF-268 CNS
SNB-19 CNS = tested on: SNB-19 CNS
M14 melanoma = tested on: M14 melanoma
SK-MEL-5 melanoma = tested on: SK-MEL-5 melanoma
OVCAR-5 ovarian = tested on: OVCAR-5 ovarian
CCRF-CEM leukemia = tested on: CCRF-CEM leukemia
BT-549 breast = tested on: BT-549 breast
NCI-H522 lung = tested on: NCI-H522 lung
MALME-3M melanoma = tested on: MALME-3M melanoma
SN12C renal = tested on: SN12C renal
HOP-62 NSCLC = tested on: HOP-62 NSCLC
NCI-H226 lung = tested on: NCI-H226 lung
MDA-MB-231 breast = tested on: MDA-MB-231 breast
HOP-92 NSCLC = tested on: HOP-92 NSCLC
OVCAR-4 ovarian = tested on: OVCAR-4 ovarian
OVCAR-8 ovarian = tested on: OVCAR-8 ovarian
HCT-116 colon = tested on: HCT-116 colon
UACC-257 melanoma = tested on: UACC-257 melanoma
MDA-MB-435 = tested on: MDA-MB-435
HS 578T breast = tested on: HS 578T breast
UO-31 renal = tested on: UO-31 renal
SK-MEL-2 melanoma = tested on: SK-MEL-2 melanoma
SF-539 CNS = tested on: SF-539 CNS
KM12 colon = tested on: KM12 colon
OVCAR-3 ovarian = tested on: OVCAR-3 ovarian
NCI/ADR-RES ovarian = tested on: NCI/ADR-RES ovarian
786-0 renal = tested on: 786-0 renal
IGROV1 ovarian = tested on: IGROV1 ovarian
NCI-H23 lung = tested on: NCI-H23 lung
CAKI-1 renal = tested on: CAKI-1 renal
SNB-75 CNS = tested on: SNB-75 CNS
MCF7 breast = tested on: MCF7 breast
U251 CNS = tested on: U251 CNS
T-47D breast = tested on: T-47D breast
LOX IMVI melanoma = tested on: LOX IMVI melanoma
RPMI-8226 leukemia = tested on: RPMI-8226 leukemia
SW-620 colon = tested on: SW-620 colon
TK-10 renal = tested on: TK-10 renal
COLO 205 colon = tested on: COLO 205 colon
EKVX NSCLC = tested on: EKVX NSCLC
PC-3 prostate = tested on: PC-3 prostate
ACHN renal = tested on: ACHN renal
UACC-62 melanoma = tested on: UACC-62 melanoma
NCI-H460 lung = tested on: NCI-H460 lung
SF-295 CNS = tested on: SF-295 CNS
RXF 393 renal = tested on: RXF 393 renal
DU-145 prostate = tested on: DU-145 prostate
HCC-2998 colon = tested on: HCC-2998 colon

With `Oc1c(I)cc(I)cc1CNCCN(Cc1ccccn1)Cc1ccccn1` the GI50 (HT29 colon) was 2.3 µM, the TGI (HT29 colon) was 5.96 µM and the GI50 (SK-MEL-28 melanoma) was 1.41 µM. The TGI (SK-MEL-28 melanoma) was 3.64 µM, the GI50 (A549 NSCLC) was 1.24 µM and the TGI (A549 NSCLC) was 2.91 µM. For the same compound, the GI50 (HCT-15 colon) was 1.18 µM, the TGI (HCT-15 colon) was 4.17 µM and the GI50 (A498 renal) was 1.67 µM. The TGI (A498 renal) was 3.04 µM, the GI50 (SK-OV-3 ovarian) was 1.21 µM and the TGI (SK-OV-3 ovarian) was 2.58 µM. For the same compound, the GI50 (SF-268 CNS) was 1.01 µM, the TGI (SF-268 CNS) was 2.4 µM and the GI50 (SNB-19 CNS) was 0.693 µM. For the same compound, the TGI (SNB-19 CNS) was 2.11 µM, the GI50 (M14 melanoma) was 1.45 µM and the TGI (M14 melanoma) was 3 µM. It also gave a GI50 (SK-MEL-5 melanoma) of 1.15 µM, a TGI (SK-MEL-5 melanoma) of 2.45 µM and a GI50 (OVCAR-5 ovarian) of 1.42 µM. For the same compound, the TGI (OVCAR-5 ovarian) was 4.18 µM, the GI50 (CCRF-CEM leukemia) was 1.87 µM and the TGI (CCRF-CEM leukemia) was 21.1 µM. The GI50 (BT-549 breast) was 1.24 µM, the TGI (BT-549 breast) was 2.52 µM and the GI50 (NCI-H522 lung) was 1.37 µM. For the same compound, the TGI (NCI-H522 lung) was 3.34 µM, the GI50 (MALME-3M melanoma) was 1.53 µM and the TGI (MALME-3M melanoma) was 3.33 µM. For the same compound, the GI50 (SN12C renal) was 0.667 µM, the TGI (SN12C renal) was 2.37 µM and the GI50 (HOP-62 NSCLC) was 0.859 µM. It also gave a TGI (HOP-62 NSCLC) of 2.67 µM, a GI50 (NCI-H226 lung) of 1.07 µM and a TGI (NCI-H226 lung) of 2.75 µM. It also gave a GI50 (MDA-MB-231 breast) of 1.15 µM, a TGI (MDA-MB-231 breast) of 3.16 µM and a GI50 (HOP-92 NSCLC) of 1.54 µM. For the same compound, the TGI (HOP-92 NSCLC) was 3.07 µM, the GI50 (OVCAR-4 ovarian) was 0.896 µM and the TGI (OVCAR-4 ovarian) was 2.23 µM. For the same compound, the GI50 (OVCAR-8 ovarian) was 2.14 µM, the TGI (OVCAR-8 ovarian) was 8.16 µM and the GI50 (HCT-116 colon) was 1.28 µM. For the same compound, the TGI (HCT-116 colon) was 2.61 µM, the GI50 (UACC-257 melanoma) was 1.89 µM and the TGI (UACC-257 melanoma) was 4.25 µM. For the same compound, the GI50 (MDA-MB-435) was 1.55 µM, the TGI (MDA-MB-435) was 3.15 µM and the GI50 (HS 578T breast) was 2.12 µM. It also gave a TGI (HS 578T breast) of 7.43 µM, a GI50 (UO-31 renal) of 0.779 µM and a TGI (UO-31 renal) of 2.07 µM. It also gave a GI50 (SK-MEL-2 melanoma) of 1.74 µM, a TGI (SK-MEL-2 melanoma) of 3.8 µM and a GI50 (SF-539 CNS) of 1.14 µM. It also gave a TGI (SF-539 CNS) of 2.42 µM, a GI50 (KM12 colon) of 1.2 µM and a TGI (KM12 colon) of 2.67 µM. The GI50 (OVCAR-3 ovarian) was 1.32 µM, the TGI (OVCAR-3 ovarian) was 2.73 µM and the GI50 (NCI/ADR-RES ovarian) was 1.8 µM. For the same compound, the TGI (NCI/ADR-RES ovarian) was 4.79 µM, the GI50 (786-0 renal) was 1.44 µM and the TGI (786-0 renal) was 2.75 µM. For the same compound, the GI50 (IGROV1 ovarian) was 0.83 µM, the TGI (IGROV1 ovarian) was 2.98 µM and the GI50 (NCI-H23 lung) was 1.76 µM. It also gave a TGI (NCI-H23 lung) of 4.66 µM, a GI50 (CAKI-1 renal) of 1.32 µM and a TGI (CAKI-1 renal) of 2.68 µM. It also gave a GI50 (SNB-75 CNS) of 0.544 µM, a TGI (SNB-75 CNS) of 2.06 µM and a GI50 (MCF7 breast) of 1.21 µM. For the same compound, the TGI (MCF7 breast) was 3.19 µM, the GI50 (U251 CNS) was 0.827 µM and the TGI (U251 CNS) was 2.89 µM. The GI50 (T-47D breast) was 1.46 µM, the TGI (T-47D breast) was 2.83 µM and the GI50 (LOX IMVI melanoma) was 1.14 µM. The TGI (LOX IMVI melanoma) was 2.45 µM, the GI50 (RPMI-8226 leukemia) was 1.66 µM and the TGI (RPMI-8226 leukemia) was 7.64 µM. It also gave a GI50 (SW-620 colon) of 1.65 µM, a TGI (SW-620 colon) of 3.47 µM and a GI50 (TK-10 renal) of 1.26 µM. The TGI (TK-10 renal) was 2.54 µM, the GI50 (COLO 205 colon) was 1.49 µM and the TGI (COLO 205 colon) was 3.68 µM. It also gave a GI50 (EKVX NSCLC) of 0.911 µM, a TGI (EKVX NSCLC) of 2.11 µM and a GI50 (PC-3 prostate) of 1.16 µM. For the same compound, the TGI (PC-3 prostate) was 2.92 µM, the GI50 (ACHN renal) was 1.13 µM and the TGI (ACHN renal) was 2.34 µM. The GI50 (UACC-62 melanoma) was 1.49 µM, the TGI (UACC-62 melanoma) was 4.21 µM and the GI50 (NCI-H460 lung) was 0.804 µM. For the same compound, the TGI (NCI-H460 lung) was 2.48 µM, the GI50 (SF-295 CNS) was 1.23 µM and the TGI (SF-295 CNS) was 2.63 µM. For the same compound, the GI50 (RXF 393 renal) was 1.5 µM, the TGI (RXF 393 renal) was 2.99 µM and the GI50 (DU-145 prostate) was 1.07 µM. The TGI (DU-145 prostate) was 2.27 µM, the GI50 (HCC-2998 colon) was 1.47 µM and the TGI (HCC-2998 colon) was 2.95 µM.
